These are literature values, as cited in patent US20070010487A1 (priority 2005, published 2007).

This data set concerns the target P-gp efflux (Homo sapiens, UniProt P08183).

P-gp efflux, sequence (P08183 whole entry): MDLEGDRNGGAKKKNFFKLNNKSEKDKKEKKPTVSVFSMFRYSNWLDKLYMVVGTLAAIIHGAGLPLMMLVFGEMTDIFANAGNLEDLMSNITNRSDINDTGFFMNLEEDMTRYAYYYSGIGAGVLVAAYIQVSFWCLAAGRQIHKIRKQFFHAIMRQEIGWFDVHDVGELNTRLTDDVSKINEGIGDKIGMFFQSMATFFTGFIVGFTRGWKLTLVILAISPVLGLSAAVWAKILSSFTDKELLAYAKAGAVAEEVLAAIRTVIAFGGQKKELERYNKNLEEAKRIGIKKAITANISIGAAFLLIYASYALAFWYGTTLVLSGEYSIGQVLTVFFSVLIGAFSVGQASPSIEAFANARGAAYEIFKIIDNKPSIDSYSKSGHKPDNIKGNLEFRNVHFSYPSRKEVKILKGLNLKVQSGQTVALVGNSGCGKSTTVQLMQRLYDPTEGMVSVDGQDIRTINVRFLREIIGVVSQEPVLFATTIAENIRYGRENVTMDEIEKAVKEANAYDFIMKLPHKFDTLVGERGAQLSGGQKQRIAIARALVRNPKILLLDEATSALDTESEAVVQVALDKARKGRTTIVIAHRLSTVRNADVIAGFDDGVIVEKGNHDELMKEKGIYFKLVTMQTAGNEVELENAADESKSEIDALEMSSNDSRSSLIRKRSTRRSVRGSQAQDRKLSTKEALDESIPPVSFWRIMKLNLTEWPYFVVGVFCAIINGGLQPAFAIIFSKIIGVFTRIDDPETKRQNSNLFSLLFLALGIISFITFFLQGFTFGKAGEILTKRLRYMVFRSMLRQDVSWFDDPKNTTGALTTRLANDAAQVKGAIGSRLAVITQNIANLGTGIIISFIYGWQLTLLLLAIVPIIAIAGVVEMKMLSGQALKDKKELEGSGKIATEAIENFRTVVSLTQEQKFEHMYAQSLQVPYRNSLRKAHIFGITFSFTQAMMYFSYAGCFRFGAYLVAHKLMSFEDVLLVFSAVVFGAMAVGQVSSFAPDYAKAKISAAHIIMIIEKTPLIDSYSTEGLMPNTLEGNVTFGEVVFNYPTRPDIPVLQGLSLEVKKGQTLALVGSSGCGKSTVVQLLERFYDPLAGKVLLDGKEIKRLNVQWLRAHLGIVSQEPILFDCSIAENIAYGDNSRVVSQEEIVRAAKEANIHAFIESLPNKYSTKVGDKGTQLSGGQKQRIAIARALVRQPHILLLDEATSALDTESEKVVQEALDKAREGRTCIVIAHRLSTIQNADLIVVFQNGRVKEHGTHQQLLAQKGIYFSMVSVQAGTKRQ

In the case of `O[C@@H](COc1cccc2ncccc12)CN1CCN([C@@H]2c3ccccc3[C@@H]3[C@H](c4ccccc42)C3(F)F)CC1` [Zosuquidar], the “substrate for P-gp efflux” value is reported as “does not appear to be a substrate for P-gp efflux”.
